From PMC1559639 (BMC Clinical Pharmacology, 2006)
“And” between values parts separate entries of the source, which are not always exact repeats. Equal values may be shown once. Read-outs that look alike come from different tables or passages of the source.

Experiments:
[1] = Plasma kinetics after single oral dose of 300 mg Pycnogenol in healthy volunteers; format: in vivo, human; details: for tmax: read-out: tmax (time of maximal plasma concentration); for half-life: read-out: term t½ (terminal half-life) (converted)
Protocol: Eleven volunteers (five female and six male) participated in this study. After a 24 hour diet free of flavonoids (no vegetables, fruits and fruit juices or marmalades, tea, coffee, cocoa, wine and beer) a venous blood catheter was inserted into an antecubital vein and blood samples were drawn to obtain basal values (t = 0 h at 8:00 a.m.). […] After each blood sampling mineral water was served. Blood samples were obtained at t = 0.5 h, 1 h, 2 h, 4 h, 6 h, 8 h, 10 h, 12 h and 14 h. Samples were centrifuged and plasma was aliquoted, shock frozen and stored at -80°C until further analysis.
(§1) Plasma samples of 2.0 mL were prepared for analysis. For determination of total plasma concentration, to each sample 20 U β-glucuronidase (type H-3 from Helix pomatia; EC 3.2.1.31) and 20 U sulfatase (type H-1 from Helix pomatia; EC 3.1.6.1) were added in 50 mM sodium acetate buffer (pH 5.0) and incubated for 2 h at 37°C under gentle shaking. Samples for determination of free plasma concentrations were prepared without prior incubation with enzymes. Each 20 μL of p-hydroxybenzoic acid methylester (100 μg/mL; for HPLC UV detection) and hydrochinone (10 μg/mL; for HPLC electrochemical detection) were added as internal standards and samples were acidified with 100 μL 1 M-HCl. Samples were extracted twice with each 3 mL acetic acid methylester for 20 min, using a roller mixer, followed by centrifugation (20°C) 5 min. The organic phases of both extractions were separated, combined and evaporated to dryness under a gentle stream of nitrogen at 25°C. The resulting residue was reconstituted in 100 μL methanol and subjected to HPLC analysis.
(§2) The HPLC system was a Waters HPLC (Milford, MA, USA) consisted of a 1525 binary pump, a 717plus autosampler, a 2487 dual wavelength absorbance detector set at the detection wavelength of 280 nm and an electrochemical detector CLC 100 (Chromsystems, Munich, Germany) set at an oxidation voltage of 0.5 V. The second detector was connected to the control system by a satellite interface (Waters). Data collection and integration were accomplished using Breeze™ software version 3.30. Analysis was performed on a Zorbax SB C8 column (150 × 4.6 mm I.D., 5 μm particle size, Agilent Technologies, Palo Alto, CA, USA).
(§3) Typically, 20 μL of sample were injected and separated at a flow rate of 1 mL/min. Isocratic elution was performed using water (containing 0.6 mM 1-octanesulfonic acid sodium salt, 0.27 mM ethylenediaminetetraacetic acid disodium salt, 0.04 M triethylamine; pH 2.95 adjusted with phosphoric acid) and acetonitrile (ACN, HPLC gradient quality, Fisher Scientific, Schwerte, Germany). Method A (for UV detection of ferulic acid, M2 (δ-(3-Methoxy-4-hydroxy-phenyl)-γ-valerolactone), U1, U2, U3, U4, U7, U8, and U9) used water/ACN at 85:15 (v/v).

clinical = format: in vivo; details: for % conjugated (mean degree of conjugation with sulfate and glucuronic acid): steady state plasma, mean of volunteers; for concentration at 4 h: both sexes, 200 mg
Protocol: Five volunteers (four female and one person) participated in this study. After a 24 hour diet free of flavonoids blood samples were drawn to obtain basal values. […] It was assumed that steady state plasma concentrations were reached after 5 days.
Four hours after the last intake of Pycnogenol on day five a second blood sample was obtained from each volunteer. Again, a 24 hour period of a diet free of flavonoids preceded this blood sampling. Blood samples were centrifuged and plasma was aliquoted, shock frozen and stored at -80°C until further analysis.
as §1, §2, §3

[2] = cited from earlier work; for t½: reported previously
MMP-9 release = details: in vitro / cell culture assays; read-out: IC50, inhibition of MMP-9 release; cited from earlier work
[3] = both sexes, human, plasma, po, 300 mg, human volunteers, single oral dose 300 mg Pycnogenol, total (free and conjugated) plasma, t = 14 h, mean ± SD, read-out: AUC [0-t]
[4] = both sexes, human, plasma, po, 300 mg, human volunteers, single oral dose 300 mg Pycnogenol, total plasma, mean ± SD, read-out: AUC [t-8]
[5] = both sexes, human, plasma, po, 300 mg, human volunteers, single oral dose 300 mg Pycnogenol, total plasma, mean ± SD, read-out: cmax (maximal plasma concentration)
[6] = both sexes, human, plasma, po, 300 mg, human volunteers, single oral dose 300 mg Pycnogenol, total plasma, mean ± SD
[7] = both sexes, human, plasma, po, 300 mg
[8] = human volunteers, single oral dose 300 mg Pycnogenol, total plasma, mean ± SD
[9] = 200 mg Pycnogenol once daily for five days
[10] = human, plasma, oral, 200 mg Pycnogenol once daily for five days, 4 h after last dose, with sulfatase and glucuronidase, mean ± mean deviation, read-out: Total plasma concentration
[11] = human, plasma, oral, 200 mg Pycnogenol once daily for five days, 4 h after last dose, without enzyme incubation, read-out: Free plasma concentration
[12] = both sexes, human, plasma, oral, 300 mg, single dose 300 mg Pycnogenol, total plasma, read-out: cmax converted to molar concentration
[13] = both sexes, human, plasma, oral, 300 mg

Structure (SMILES)	AUC(0-t) [1, 3] [µg·h/mL]	AUC(0-t) [1, 4] [µg·h/mL]	Cmax [1, 5] [µg/mL]	tmax [1, 6] [h]	half-life [1, 7] [h]	tmax (time of maximal plasma concentration) [1, 8] [h]	% conjugated (mean degree of conjugation with sulfate and glucuronic acid) (clinical; [9])	concentration at 4 h (clinical; [10]) [µg/mL]	Cmax [1, 12] [µM]	cmax (maximal plasma concentration) [1, 8] [ng/mL]	also measured
O=C1c2c(O)cc(O)cc2O[C@H](c2ccc(O)c(O)c2)[C@H]1O (racemic) [Taxifolin, (±)-taxifolin]	0.231 ± 0.086	0.399 ± 0.099	0.0333 ± 0.0125	8	8.89 ± 2.81	8.2 ± 2.5					
O=C(O)Cc1ccc(O)c(O)c1 [3,4-dihydroxyphenylacetic acid]											detection of taxifolin degradation products in volunteers' plasma ([1]; after Pycnogenol intake): failed to detect
O=C(O)/C=C/c1ccc(O)c(O)c1 [Caffeic acid, caffeic acid]	0.0757 ± 0.0335	0.0828 ± 0.0365	~0.017	3 to 4	4.42 ± 2.47	3.7 ± 2.4	69.4 ± 11.8%	0.00242 ± 0.00139	~0.09	16.67 ± 13.29	% conjugated (mean degree of conjugation with sulfate and glucuronic acid) (clinical; 200 mg Pycnogenol once daily for five days, listed as caffeic acid): 69.4% and 69%; concentration at 4 h (clinical; [11]): 0.00056 ± 2e-05 µg/mL; individual degree of conjugation (clinical; single volunteers, 200 mg Pycnogenol daily for five days): 59.6% and 61.5% and 87.6%; Cmax ([2]; after ingestion of 107 mg caffeic acid from artichoke leaf extract): 0.0065 µg/mL; tmax ([2]; after ingestion of red wine): 2 h; Cmax ([2]; after intake of 55 μg caffeic acid per kg body weight, read-out: cmax): 0.084 µM; tmax ([2]; after intake of red wine, coffee or artichoke leaf extract): 0.5 to 1 h; t½ [2]: 3.08 ± 1.53 h
Oc1cc(O)c2c(c1)O[C@H](c1ccc(O)c(O)c1)[C@@H](O)C2 [Catechin, (+)-catechin]			~0.1	≤ 3		3.2 ± 1.7		0.0486 ± 0.0167	~0.37	107.22 ± 55.49	concentration at 4 h (clinical; [11]): 0.021 ± 0.0131 µg/mL; free catechin concentration (share of total) (clinical; both, human, in vivo, 4 h): about 56%; time window of detection of unchanged compound in plasma ([2]; after a high single dose): between 30 min and 12 h; free polyphenol concentration as share of total concentration ([2]; after a single dose of pure catechin): 1.1 to 6.5%; time by which plasma concentrations were not significantly different from baseline ([2]; after ingestion of pure catechin): ≤ 4 h; tmax ([2]; human plasma, after ingestion of red wine or reconstituted red wine): 1.5 h; concentration at 0.5 h [1, 13]: ~0.06 µg/mL; concentration at 4 h [1, 13]: ~0.1 µg/mL
COc1cc(/C=C/C(=O)O)ccc1O [Ferulic acid, ferulic acid]	0.099 ± 0.0281	0.141 ± 0.0739	~0.015		6.87 ± 3.83	1.2 ± 1.1	≈ 100%		~0.075	14.78 ± 5.89	concentration at 4 h (clinical; human, in vivo, read-out: Total plasma concentration): ~0.02 µg/mL; plasma concentrations ([2]; after ingestion of 250 mg ferulic acid from breakfast cereals): 0.15 to 0.21 µM; free ferulic acid (share) ([2]; after single ingestion of beer): around 25%; tmax ([2]; other report, ref 6): 0.77 h; tmax ([2]; other report, ref 27): 1 to 3 h; t½ [2]: 6.35 ± 2.95 h; tmax (time of maximal plasma concentration) ([1]; human volunteers, single oral dose 300 mg Pycnogenol, total plasma, mean ± SD, listed as ferulic acid): 0.5 to 1 h and 1 h
O=C1CCC(Cc2ccc(O)c(O)c2)O1 (centres unmarked) [M1, δ-(3,4-Dihydroxy-phenyl)-γ-valerolactone]			~0.004	~10			≈ 100%	0.00301	~0.02		earliest appearance ([2]; after green tea ingestion): 3 h; time of peak plasma levels ([2]; after ingestion of green tea): 5 to 12 h; IC50 (MMP-9 release): 0.5 µM; time of first detection in plasma ([1]; after single dose 300 mg Pycnogenol, first sampling at 0.5 h): 6 h; mean concentration at peak ([1]; around 10 h after single dose 300 mg Pycnogenol, total plasma): 0.00359 µg/mL; presence in plasma over the experimental period of 14 h ([1]; single dose 300 mg Pycnogenol): still present 14 h after Pycnogenol ingestion
COc1cc(CC2CCC(=O)O2)ccc1O (centres unmarked) [M2, δ-(3-Methoxy-4-hydroxy-phenyl)-γ-valerolactone]											IC50 (MMP-9 release): 0.5 µM; plasma concentration (not detected; lower limit of quantitation) ([1]; after single dose and repeated ingestion of Pycnogenol): < 0.05 µg/mL
Oc1cc(O)cc(O)c1 [phloroglucin]											detection of taxifolin degradation products in volunteers' plasma ([1]; human, in vivo): failed to detect
